{"source": "patent US20200223889A1", "about": "“Bicyclic Compounds Capable of Binding to Melanocortin 4 Receptor” (Novo Nordisk A/S, priority 2017, published 2020)", "key": {"[1]": {"biological_target": "T1, human MC4R (Homo sapiens, UniProt P32245)", "T1 construct": "expressed in transfected cells", "T1 sequence (P32245 whole entry)": "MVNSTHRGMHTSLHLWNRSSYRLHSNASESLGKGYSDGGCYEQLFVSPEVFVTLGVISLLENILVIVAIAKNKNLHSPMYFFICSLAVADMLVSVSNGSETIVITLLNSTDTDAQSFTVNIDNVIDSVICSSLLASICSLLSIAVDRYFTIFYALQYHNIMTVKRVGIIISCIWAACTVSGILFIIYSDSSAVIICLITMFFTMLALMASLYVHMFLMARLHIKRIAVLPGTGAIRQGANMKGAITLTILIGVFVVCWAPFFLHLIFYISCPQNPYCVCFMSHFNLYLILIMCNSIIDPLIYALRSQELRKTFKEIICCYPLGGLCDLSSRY", "assay": "Functional cAMP assay (CisBio HTRF) in BHK cells expressing human MC4R", "assay_type": "cell-based", "summary_of_the_method": "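Compound working solutions, 10-fold dilutions from 2 μM at twice final strength, in buffer containing 1 mM IBMX, were incubated 30 min at 25 °C with BHK cells stably carrying human MC4R or MC1R. Accumulated cAMP was then detected by competitive HTRF after 1 h at 25 °C and fitted by non-linear regression.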"}, "[2]": {"assay": "In vivo acute food intake model (BioDAQ) in C57BL/6J male mice", "conditions": "single subcutaneous dose 1 mg/kg, cumulative food intake", "protocol": "The MC4R system is central to appetite regulation and agonists are known inhibit food intake. In order to screen compounds in a relevant in vivo model, efficacy was assessed by determining the effect of the compound on reducing food intake acutely in mice.\nAll animal protocols were approved by an Institutional Animal Care and Use Committee and Ethical Review Committee of Novo Nordisk. Animals were housed according to Novo Nordisk rodent housing standards, and were given ad libitum access to food and water under controlled lighting (12 h:12 h light/dark cycle; lights off 11:00-23:00), temperature (23±2° C.) and relative humidity (50±20%) conditions. For each acute food intake study C57BL/6J male mice (25-30 grams body weight) were acclimated for two weeks to the appropriate light cycle and to single-housing (one mouse per cage) in cages linked to a BioDAQ automated food intake system (Research Diets Inc., New Brunswick, N.J. USA). The animals were also acclimated to new food (Research Diets 12450B, 10% kcal fat) during this time.\nThe BioDAQ is a computer automated scientific instrument for Biological Data Acquisition of food intake in rodents and measures food intake from each cage every 15 minutes. A total of 32 animals can be accommodated in the system per study, therefore, animals were randomized into 4 groups of n=8 for each study. […] Animals were fasted ˜4 hr prior to dosing. Vehicle (10 mM phosphate; 140 mM sodium chloride) or compound was dosed at a volume of 10 ml per kg subcutaneously approximately 20 minutes prior to the start of the dark cycle (compound chem no. and dosages are indicated in table 2 below). After dosing, food intake was recorded for approximately 24 hours.\nThe inhibitory effect of compounds on food intake was generally well-correlated with in vitro binding affinity on the human MC4 receptor and with plasma stability of the compound. Most studies were conducted as dose response studies with vehicle and the compound at 3 doses (0.3, 1 and 3 mg/kg). Some studies were done for the purpose of dose-range finding, while others were done to comparatively assess the effect of 3 compounds at the same dose. Maximal effects on food intake occurred within the first 1-5 hours post-dose. The comparative effect of compounds across studies on food intake was assessed by normalizing measurements as % effect on cumulative food intake after a single subcutaneous dose, relative to vehicle. Results are reported in Table 2 as % effect on food intake at 3 hours post dose."}}, "note": "Positions of bridges follow the written chain, without caps; N, C: chain ends. Non-standard residues stand in square brackets, D forms with d. Residues, ends and D or L forms follow the SMILES beside them. Thz = O=C(O)[C@@H]1CSCN1"}
{"smiles": "C[C@@H]1NC(=O)[C@H](CCCCN)NC(=O)[C@@H]2CSSC[C@H](NC(=O)[C@H](Cc3c[nH]c4ccccc34)NC(=O)[C@H](C)NC(=O)[C@@H](CCCCN)NC1=O)C(=O)N1CSC[C@H]1C(=O)N[C@@H](Cc1c[nH]cn1)C(=O)N[C@H](Cc1ccccc1)C(=O)N[C@@H](Cc1c[nH]cn1)C(=O)N[C@@H](Cc1c[nH]c3ccccc13)C(=O)N2", "note": "[Chem. 114, c[c[Cys-THAZ-His-D-Phe-His-Trp- Cys]-Lys-Ala-D-Lys-Ala-Trp]] (cyclo(AWC[Thz]H[dF]HWCKA[dK]); disulfide 3-9)", "values": [{"measurement": "EC50", "setting": "[1]; BHK cells expressing human MC4R, '>' = highest dose used with no response, read-out: MC4R cAMP EC50", "value": 0.04, "unit": "nM"}, {"measurement": "MC1R/MC4R cAMP EC50 ratio", "setting": "[1]; MC1R cAMP EC50 divided by MC4R cAMP EC50", "value": 2844}, {"measurement": "% Effect on food intake at 3 hours post dose, relative to vehicle", "setting": "[2]", "value": "−64 ± 6", "unit": "%"}]}
